Structures are written as SMILES. Like-named read-outs stand apart in the source and are kept apart here.

In one series the target is T1, hMAO-A (Homo sapiens, UniProt P21397).
T1 construct: purchased Sigma-Aldrich (Steinheim, Germany)
T1 sequence (P21397 1-527): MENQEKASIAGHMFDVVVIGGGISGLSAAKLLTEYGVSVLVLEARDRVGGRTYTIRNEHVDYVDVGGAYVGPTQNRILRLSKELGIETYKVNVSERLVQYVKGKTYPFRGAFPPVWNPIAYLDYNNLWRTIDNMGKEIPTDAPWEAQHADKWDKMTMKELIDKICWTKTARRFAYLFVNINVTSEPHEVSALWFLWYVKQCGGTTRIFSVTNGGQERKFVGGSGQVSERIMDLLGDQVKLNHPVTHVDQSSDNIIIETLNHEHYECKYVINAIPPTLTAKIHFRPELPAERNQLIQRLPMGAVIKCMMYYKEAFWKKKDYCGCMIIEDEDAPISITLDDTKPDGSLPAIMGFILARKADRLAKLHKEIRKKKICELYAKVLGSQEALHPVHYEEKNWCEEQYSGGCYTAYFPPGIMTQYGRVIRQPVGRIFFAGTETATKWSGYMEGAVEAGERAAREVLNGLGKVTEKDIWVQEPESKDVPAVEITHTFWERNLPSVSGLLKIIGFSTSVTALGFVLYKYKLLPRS
In words: MAO-A inhibition assay, fluorometric (Amplex Red / horseradish peroxidase-coupled). Type of series: biochemical. The settings on record: read-out: MAO-A % Inhibition. The method, then:
A Biotek Precision XS robotic system (USA) was used for all pipetting operations. Measurements were performed with the use of BioTek-Synergy H1 microplate reader (USA) based upon the fluorescence generated (excitation, 535 nm, emission, 587 nm) over a 30 min period, in which the fluorescence increased linearly.
Enzymatic assay was performed according to recent method pronounced by our research group[17]^,[20–22]. Control, blank and all concentrations of obtained compounds were tested in quadruplicate and inhibition percent was calculated with following equation: % Inhibition=(FCt2 − FCt1) − (FIt2 − FIt1)/FCt2 − FCt1 × 100
FCt2: Fluorescence of a control well measured at t2 time, FCt1: Fluorescence of a control well measured at […]: Fluorescence of an inhibitor well measured at t2 time, FIt1: Fluorescence of an inhibitor well measured at t1 time,
The IC50 values were calculated using a dose-response curve achieved by plotting the percentage inhibition versus the log concentration using GraphPad ‘PRISM’ software (version 5.0).
All the obtained benzylamine-sulphonamide derivatives 4a–4u were investigated for their inhibitory activity against MAO isoforms using a previously described in vitro fluorometric method, which is based on the detection of H2O2 in a horseradish peroxidase-coupled reaction using 10-acetyl-3,7-dihydroxyphenoxazine (Amplex Red reagent)[17]^,[20–22].
The assay was carried out in two steps. […].

The target in the next series is T2, hMAO-B (Homo sapiens, UniProt P27338).
T2 construct: purchased Sigma-Aldrich (Steinheim, Germany)
T2 sequence (P27338 1-520): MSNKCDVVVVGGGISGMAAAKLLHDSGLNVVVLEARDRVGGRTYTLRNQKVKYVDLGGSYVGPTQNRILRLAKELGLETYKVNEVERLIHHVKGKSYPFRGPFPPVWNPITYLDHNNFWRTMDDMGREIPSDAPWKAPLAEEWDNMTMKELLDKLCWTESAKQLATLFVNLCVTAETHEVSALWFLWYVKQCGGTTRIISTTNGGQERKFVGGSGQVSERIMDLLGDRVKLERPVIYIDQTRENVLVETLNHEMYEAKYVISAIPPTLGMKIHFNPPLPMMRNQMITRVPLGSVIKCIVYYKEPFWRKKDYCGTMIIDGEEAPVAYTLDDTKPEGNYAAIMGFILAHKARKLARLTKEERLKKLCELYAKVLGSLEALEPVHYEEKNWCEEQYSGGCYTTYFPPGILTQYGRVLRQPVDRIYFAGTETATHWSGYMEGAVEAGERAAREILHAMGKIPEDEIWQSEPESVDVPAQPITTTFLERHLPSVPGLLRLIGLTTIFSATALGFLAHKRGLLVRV
In words: MAO-B inhibition assay, fluorometric (Amplex Red / horseradish peroxidase-coupled).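 For all read-outs here: fluorescence read at Ex 535 nm and Em 587 nm over 30 min, linear phase, inhibition relative to uninhibited control wells, IC50 from log concentration–response curves.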 The settings on record: for inhibition at 1000 µM: 10^−3 M; for inhibition at 100 µM: 10^−4 M; for inhibition at 10 µM: 10^−5 M; for inhibition at 1 µM: 10^−6 M; for inhibition at 0.1 µM: 10^−7 M; for inhibition at 0.01 µM: 10^−8 M; for inhibition at 0.001 µM: 10^−9 M; for IC50: Table 2, mean ± SD, read-out: IC50 against MAO-B. Type of series: biochemical.

Description for hMAO-B: FCt2: Fluorescence of a control well measured at t2 time, FCt1: Fluorescence of a control well measured at t2 time, FIt2: Fluorescence of an inhibitor well measured at t2 time, FIt1: Fluorescence of an inhibitor well measured at t1 time,

The inhibition is the share of the control response that was lost under treatment. Usually IC50 stands for the point on the concentration scale where inhibition reaches its midpoint. Take `Cn1nnnc1SCC(=O)N(Cc1ccccc1)c1ccc(S(N)(=O)=O)cc1` [Compound 4d, N-Benzyl-2-((1-methyl-1H-tetrazol-5-yl)thio)-N-(4-sulfamoylphenyl)acetamide]: the inhibition at 1000 µM at hMAO-A (10^−3 M) stood at 39.2 ± 0.65%. On hMAO-A (10^−4 M), the inhibition at 100 µM came out at 29.5 ± 0.489%. For the same compound, at hMAO-B, the inhibition at 1000 µM stood at 91.6 ± 1.25%, the inhibition at 100 µM is 79.7 ± 1.46%, 10 µM produced 76.2 ± 1.06% inhibition and 1 µM produced 70.9 ± 1.01% inhibition. Also, on hMAO-B, the inhibition at 0.1 µM came to 47.5 ± 0.957%, the inhibition at 0.01 µM came out at 29.7 ± 0.723%, testing at 0.001 µM gave an inhibition of 15.2 ± 0.602% and the IC50 turned out to be 127 ± 5 nM.
For `Cc1ccc(CN(C(=O)CSc2nnnn2-c2ccccc2)c2ccc(S(N)(=O)=O)cc2)cc1` [Compound 4o, N-(4-Methylbenzyl)-2-((1-phenyl-1H-tetrazol-5-yl)thio)-N-(4-sulfamoylphenyl)acetamide], the inhibition at 1000 µM at hMAO-A (10^−3 M) came out at 44.2 ± 0.877%; against hMAO-B it was 68.3 ± 0.824%. In addition, the inhibition at 100 µM on hMAO-A (10^−4 M) was found to be 28.7 ± 0.509%; at hMAO-B, 30.3 ± 0.721%.
What is called melting point is the temperature of the solid-liquid transition. For the compound `Cc1ccc(CN(C(=O)CSc2nncn2C)c2ccc(S(N)(=O)=O)cc2)cc1` [Compound 4l, 2-((4-Methyl-4H-1,2,4-triazol-3-yl)thio)-N-(4-methylbenzyl)-N-(4-sulfamoylphenyl)acetamide], the melting point fell in the range of 229 to 231 °C. Besides, the inhibition at 1000 µM on hMAO-A (10^−3 M) is 42.3 ± 0.63%. Besides, at hMAO-A (10^−4 M), the inhibition at 100 µM came to 25.2 ± 0.712%. At hMAO-B, this compound returned an inhibition at 1000 µM of 74.2 ± 1.05% and an inhibition at 100 µM of 43.8 ± 0.882%.
With `Cn1ccnc1SCC(=O)N(Cc1ccccc1)c1ccc(S(N)(=O)=O)cc1` [Compound 4a, N-Benzyl-2-((1-methyl-1H-imidazol-2-yl)thio)-N-(4-sulfamoylphenyl)acetamide], the melting point was 137 to 139 °C. For the same compound, on hMAO-A (10^−3 M), the inhibition at 1000 µM is 35.1 ± 0.989%. In addition, the inhibition at 100 µM at hMAO-A (10^−4 M) came out at 26.5 ± 0.856%. On hMAO-B, this compound had an inhibition at 1000 µM of 92.3 ± 1.11% and an inhibition at 100 µM of 47 ± 0.958%.
On to `Cc1nnc(SCC(=O)N(Cc2ccccc2)c2ccc(S(N)(=O)=O)cc2)s1` [Compound 4c, N-Benzyl-2-((5-methyl-1,3,4-thiadiazol-2-yl)thio)-N-(4-sulfamoylphenyl)acetamide], for which the melting point lay in the range of 164 to 166 °C. The inhibition at 1000 µM at hMAO-A (10^−3 M) came to 40.6 ± 0.749%. For the same compound, on hMAO-A (10^−4 M), the inhibition at 100 µM stood at 24.1 ± 0.61%. At hMAO-B, this compound gave an inhibition at 1000 µM of 91.1 ± 1.25% and an inhibition at 100 µM of 48.3 ± 0.855%.
In the case of `C#CCN(C)CCCOc1ccc(Cl)cc1Cl` [Clorgiline, reference compound], at hMAO-A, the inhibition at 100 µM was 98.3 ± 1.82% and the inhibition at 1000 µM was determined as 99.4 ± 1.96%.
With `Cc1ccc(CN(C(=O)CSc2nccn2C)c2ccc(S(N)(=O)=O)cc2)cc1` [Compound 4k, 2-((1-Methyl-1H-imidazol-2-yl)thio)-N-(4-methylbenzyl)-N-(4-sulfamoylphenyl)acetamide], the melting point lay within 153 to 155 °C. Further, the inhibition at 1000 µM on hMAO-A (10^−3 M) was determined as 39.3 ± 0.701%. Besides, on hMAO-A (10^−4 M), the inhibition at 100 µM amounted to 30.3 ± 0.582%. In addition, at hMAO-B, the inhibition at 1000 µM was 79.5 ± 0.957% and the inhibition at 100 µM was 39 ± 0.702%.
The like results for `NS(=O)(=O)c1ccc(N(Cc2ccccc2)C(=O)CSc2nc3ccccc3o2)cc1` [Compound 4g, 2-(Benzoxazol-2-ylthio)-N-benzyl-N-(4-sulfamoylphenyl)acetamide] were, in that order, 82 to 84 °C, 47.2 ± 0.979%, 32.2 ± 0.621%, 94.7 ± 1.34% and 47.3 ± 0.963%.
Turning to `Cc1ccc(CN(C(=O)CSc2nnc(C)s2)c2ccc(S(N)(=O)=O)cc2)cc1` [Compound 4m, 2-((5-Methyl-1,3,4-thiadiazol-2-yl)thio)-N-(4-methylbenzyl)-N-(4-sulfamoylphenyl)acetamide], the melting point fell in the range of 178 to 180 °C. The inhibition at 1000 µM on hMAO-A (10^−3 M) stood at 37.4 ± 0.85%. For the same compound, the inhibition at 100 µM on hMAO-A (10^−4 M) was determined as 31.1 ± 0.729%. At hMAO-B, this compound came in with an inhibition at 1000 µM of 76.3 ± 1% and an inhibition at 100 µM of 40.1 ± 0.799%.
Compound `Cc1ccc(CN(C(=O)CSc2nc3ccccc3s2)c2ccc(S(N)(=O)=O)cc2)cc1` [Compound 4s, 2-(Benzothiazol-2-ylthio)-N-(4-methylbenzyl)-N-(4-sulfamoylphenyl)acetamide] yielded a melting point of 170 to 172 °C. Besides, the inhibition at 1000 µM on hMAO-A (10^−3 M) was determined as 38.2 ± 0.734%. The inhibition at 100 µM on hMAO-A (10^−4 M) stood at 33 ± 0.697%. On hMAO-B, the inhibition at 1000 µM was found to be 72.7 ± 1% and the inhibition at 100 µM amounted to 40.3 ± 0.835%.
`NS(=O)(=O)c1ccc(N(Cc2ccccc2)C(=O)CSc2nc3ccccc3s2)cc1` [Compound 4h, 2-(Benzothiazol-2-ylthio)-N-benzyl-N-(4-sulfamoylphenyl)acetamide] gave a melting point of 88 to 90 °C. Besides, the inhibition at 1000 µM on hMAO-A (10^−3 M) was found to be 39.1 ± 0.821%. Further, on hMAO-A (10^−4 M), the inhibition at 100 µM was 20.3 ± 0.608%. At hMAO-B, this compound gave an inhibition at 1000 µM of 96.2 ± 1.1% and an inhibition at 100 µM of 48.8 ± 0.879%.
For `NS(=O)(=O)c1ccc(N(Cc2ccccc2)C(=O)CSc2ccccn2)cc1` [Compound 4f, N-Benzyl-2-(pyridin-2-ylthio)-N-(4-sulfamoylphenyl)acetamide], the inhibition at 1000 µM on hMAO-A (10^−3 M) was determined as 46 ± 0.863%. The inhibition at 100 µM on hMAO-A (10^−4 M) amounted to 30.1 ± 0.627%. Also, at hMAO-B, the inhibition at 1000 µM amounted to 90.6 ± 1.39%, testing at 100 µM gave an inhibition of 83.3 ± 1.26%, the inhibition at 10 µM was found to be 76.3 ± 1.11% and 1 µM produced 73.2 ± 1.06% inhibition. Further, at hMAO-B, the inhibition at 0.1 µM stood at 48.6 ± 0.957%, the inhibition at 0.01 µM was 32.5 ± 0.721%, the inhibition at 0.001 µM worked out at 20.9 ± 0.623% and the IC50 stood at 146 ± 6 nM.
Turning to `COc1ccc2sc(SCC(=O)N(Cc3ccc(C)cc3)c3ccc(S(N)(=O)=O)cc3)nc2c1` [Compound 4u, 2-((5-Methoxybenzothiazol-2-yl)thio)-N-(4-methylbenzyl)-N-(4-sulfamoylphenyl)acetamide], the inhibition at 1000 µM at hMAO-A (10^−3 M) amounted to 36.8 ± 0.678%; at hMAO-B it was 65.1 ± 0.985%. Moreover, the values for the inhibition at 100 µM at hMAO-A (10^−4 M) and against hMAO-B were 29.9 ± 0.539% and 36 ± 0.726%, respectively.
The like results for `Cc1ccc(CN(C(=O)CSc2nnnn2C)c2ccc(S(N)(=O)=O)cc2)cc1` [Compound 4n, 2-((1-Methyl-1H-tetrazol-5-yl)thio)-N-(4-methylbenzyl)-N-(4-sulfamoylphenyl)acetamide] were, in that order, 40.2 ± 0.97%, 72.2 ± 0.959%, 21.5 ± 0.632% and 38.3 ± 0.638%.
Regarding `COc1ccc2sc(SCC(=O)N(Cc3ccccc3)c3ccc(S(N)(=O)=O)cc3)nc2c1` [Compound 4j, N-Benzyl-2-((5-methoxybenzothiazol-2-yl)thio)-N-(4-sulfamoylphenyl)acetamide], the inhibition at 1000 µM came to 48.2 ± 0.825% at hMAO-A (10^−3 M) and 90.8 ± 1.25% at hMAO-B. For the same compound, the inhibition at 100 µM on hMAO-A (10^−4 M) was determined as 37.4 ± 0.679%; against hMAO-B, 45.1 ± 0.958%.
`NS(=O)(=O)c1ccc(N(Cc2ccccc2)C(=O)CSc2nnnn2-c2ccccc2)cc1` [Compound 4e, N-Benzyl-2-((1-phenyl-1H-tetrazol-5-yl)thio)-N-(4-sulfamoylphenyl)acetamide]: the inhibition at 1000 µM was found to be 41.5 ± 0.899% at hMAO-A (10^−3 M) and 90.1 ± 1.01% against hMAO-B. In addition, the inhibition at 100 µM at hMAO-A (10^−4 M) is 28 ± 0.714%; on hMAO-B it was 48.4 ± 0.721%.

The values above are taken from PMC7821958, “Synthesis, in vitro enzyme activity and molecular docking studies of new benzylamine-sulfonamide derivatives as selective MAO-B inhibitors” (Journal of Enzyme Inhibition and Medicinal Chemistry, 2020).
